pEC50: −log10 of the molar value. Where two headings read alike, the source gives them in different places.

For one data set, the target named is T1, TAAR1 (Homo sapiens, UniProt Q96RJ0).
T1 sequence (Q96RJ0 1-339): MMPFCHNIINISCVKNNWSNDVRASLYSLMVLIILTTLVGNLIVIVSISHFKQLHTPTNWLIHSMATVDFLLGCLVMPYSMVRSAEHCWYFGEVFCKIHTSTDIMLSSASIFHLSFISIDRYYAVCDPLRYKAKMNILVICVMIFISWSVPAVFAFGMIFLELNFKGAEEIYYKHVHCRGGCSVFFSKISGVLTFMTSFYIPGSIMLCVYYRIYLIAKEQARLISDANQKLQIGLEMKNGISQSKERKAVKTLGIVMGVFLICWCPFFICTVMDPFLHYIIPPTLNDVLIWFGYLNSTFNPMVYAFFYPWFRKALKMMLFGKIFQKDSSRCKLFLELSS
Put plainly: BRET-based cellular cAMP (EPAC biosensor) assay of TAAR1 agonism in transfected HEK-293 cells. Conditions: for Emax: HEK293, read-out: Emax: maximum observed activation of TAAR1 relative to that observed for 1 μM of β-PEA.

[1] abbreviates: TAAR1 activation, BRET assay, HEK-293, mean from 3 assays.
The mark [2] stands for this setting: relative to 1 μM β-PEA, mean from 3 BRET assays, errors ±5–10%.

Protocol for TAAR1: The Bioluminescence Resonance Energy Transfer approach (BRET) has been used for functional activity experiments. HEK-293 cells were transiently transfected with cDNA for TAARs and cAMP BRET biosensor (EPAC) and then plated in a 96-well plate, as described [23]. All compounds were tested at the initial concentration of 10 µM. […] A natural agonist of TAAR1 β-phenylethylamine (β-PEA) was used as a positive control.

The molecule `Cl.NCCc1nnc(-c2cc(Cl)cc(Cl)c2)[nH]1` [Compound 21, 2-(5-(3,5-Dichlorophenyl)-4H-1,2,4-triazol-3-yl)ethan-1-amine Hydrochloride] came in with a melting point of 222 to 224 °C. For the same molecule, on TAAR1, the pEC50 was 7.64 and the Emax was 112%.
As for `Cl.NCCc1nnc(C(c2ccccc2)c2ccccc2)[nH]1` [Compound 13, 2-(5-(Diphenylmethyl)-4H-1,2,4-triazol-3-yl)ethan-1-amine Hydrochloride], the melting point lay in the range of 236 to 237 °C. Further, on TAAR1 (setting [1]), the EC50 result is “inactive”. Also, at TAAR1 (setting [2]), the “Emax: maximum observed activation of TAAR1 relative to that observed for 1 μM of β-PEA” value was “inactive”.
Regarding `COc1ccc(-c2nnc(CCN)[nH]2)cc1.Cl` [Compound 6, 2-(5-(4-Methoxyphenyl)-4H-1,2,4-triazol-3-yl)ethan-1-amine Hydrochloride], the melting point is 248 to 250 °C. For the same molecule, on TAAR1, the pEC50 was below 6.00 and the maximal effect (Emax) was 56%.
Taken in the same sequence, the figures for `Cc1cc(-c2nnc(CCN)[nH]2)ccc1O.Cl` [Compound 57, 4-(5-(2-Aminoethyl)-4H-1,2,4-triazol-3-yl)-2-methylphenol Hydrochloride] were 158 to 160 °C, below 6.00 and 90%.
In the case of `COc1ccc(-c2ccc(-c3nnc(CCN)[nH]3)cc2)cc1OC.Cl` [Compound 64, 2-(5-(3′,4′-Dimethoxy-(1,1′-biphenyl)-4-yl)-4H-1,2,4-triazol-3-yl)ethan-1-amine Hydrochloride], the melting point fell in the range of 199 to 201 °C. In addition, on TAAR1, the pEC50 was 6.73 and the Emax came out at 104%.
Molecule `COc1ccc(-c2nnc(CCN)[nH]2)cc1OC.Cl` [Compound 11, 2-(5-(3,4-Dimethoxyphenyl)-4H-1,2,4-triazol-3-yl)ethan-1-amine Hydrochloride] yielded a melting point of 209 to 210 °C. Moreover, the EC50 entry at TAAR1 (setting [1]) was “inactive”. Moreover, the “Emax: maximum observed activation of TAAR1 relative to that observed for 1 μM of β-PEA” value at TAAR1 (setting [2]) was “inactive”.
`Cl.NCCc1nnc(-c2ccc(C(F)(F)F)cc2)[nH]1` [Compound 15, 2-(5-(4-[Trifluoromethyl]phenyl)-4H-1,2,4-triazol-3-yl)ethan-1-amine Hydrochloride]: the melting point was 254 to 255 °C. Besides, the EC50 entry at TAAR1 (setting [1]) is “inactive”. On TAAR1 (setting [2]), the “Emax: maximum observed activation of TAAR1 relative to that observed for 1 μM of β-PEA” value was “inactive”.
Molecule `Cl.NCCc1nnc(-c2cccc(Br)c2)[nH]1` [Compound 20, 2-(5-(3-Bromophenyl)-4H-1,2,4-triazol-3-yl)ethan-1-amine Hydrochloride] showed a melting point of 239 to 241 °C. Also, on TAAR1, the pEC50 is 6.66 and the Emax amounted to 124%.
For `Cl.NCCc1nnc(-c2ccc(OCc3ccccc3)cc2)[nH]1` [Compound 19, 2-(5-(4-(Benzyloxy)phenyl)-4H-1,2,4-triazol-3-yl)ethan-1-amine Hydrochloride], the melting point was in the range of 238 to 240 °C. In addition, on TAAR1, the pEC50 was 7.59 and the Emax stood at 113%. In addition, the EC50 entry on TAAR1 (setting [1]) was “double-digit nanomolar range”.
Take `CCOc1cc(-c2nnc(CCN)[nH]2)cc(OCC)c1OCC.Cl` [Compound 32, 2-(5-(3,4,5-Triethoxyphenyl)-4H-1,2,4-triazol-3-yl)ethan-1-amine Hydrochloride]: the melting point lay within 253 to 255 °C. Further, at TAAR1 (setting [1]), the EC50 entry was “inactive”. In addition, at TAAR1 (setting [2]), the “Emax: maximum observed activation of TAAR1 relative to that observed for 1 μM of β-PEA” value was “inactive”.
On to `CN(C)c1ccc(-c2nnc(CCN)[nH]2)cc1` [Compound 30, 4-(5-(2-Aminoethyl)-4H-1,2,4-triazol-3-yl)-N,N-dimethylaniline], for which the melting point was 244 to 246 °C. For the same molecule, at TAAR1, the “Emax: maximum observed activation of TAAR1 relative to that observed for 1 μM of β-PEA” value worked out at 122. The pEC50 at TAAR1 (setting [1]) was 6.14.
`Cl.NCCc1nnc(-c2ccccc2OC(F)(F)F)[nH]1` [Compound 39, 2-(5-(2-[Trifluoromethoxy]phenyl)-4H-1,2,4-triazol-3-yl)ethan-1-amine Hydrochloride] gave a melting point of 208 to 211 °C. The EC50 result on TAAR1 (setting [1]) was “inactive”. The “Emax: maximum observed activation of TAAR1 relative to that observed for 1 μM of β-PEA” value at TAAR1 (setting [2]) was “inactive”.
The molecule `Cl.NCCc1nnc(-c2cnccn2)[nH]1` [Compound 38, 2-(5-(Pyrazin-2-yl)-4H-1,2,4-triazol-3-yl)ethan-1-amine Hydrochloride] displayed a melting point of 184 to 186 °C. The EC50 entry on TAAR1 (setting [1]) was “inactive”. Moreover, at TAAR1 (setting [2]), the “Emax: maximum observed activation of TAAR1 relative to that observed for 1 μM of β-PEA” value was “inactive”.
In turn, `Cc1cc(-c2nnc(CCN)[nH]2)ccc1OCc1ccc(F)cc1.Cl` [Compound 48, 2-(5-(4-[(4-Fluorobenzyl)oxy]-3-methylphenyl)-4H-1,2,4-triazol-3-yl)ethan-1-amine Hydrochloride] yielded a melting point of 182 to 183 °C. At TAAR1, the pEC50 was 6.79 and the Emax came out at 98%.
With `Cc1cc(-c2nnc(CCN)[nH]2)ccc1OCc1ccccc1F.Cl` [Compound 46, 2-(5-(4-[(2-Fluorobenzyl)oxy]-3-methylphenyl)-4H-1,2,4-triazol-3-yl)ethan-1-amine Hydrochloride], the melting point was in the range of 234 to 236 °C. For the same molecule, at TAAR1, the pEC50 was 6.40 and the Emax is 82%.
In the same order, the values of `Cl.NCCc1nnc(-c2ccc(-c3cccc(C(F)(F)F)c3)cc2)[nH]1` [Compound 63, 2-(5-(3′-Trifluoromethyl-(1,1′-biphenyl)-4-yl)-4H-1,2,4-triazol-3-yl)ethan-1-amine Hydrochloride] are 210 to 212 °C, 6.60 and 76%.
In the same order, the values of `Cc1ccc(Oc2ccc(-c3nnc(CCN)[nH]3)cc2)cc1.Cl` [Compound 54, 2-(5-(4-[4-Methylphenoxy]phenyl)-4H-1,2,4-triazol-3-yl)ethan-1-amine Hydrochloride] are 234 to 236 °C, 6.82 and 94%.
In the same order, the values of `Cc1ccc(Oc2cccc(-c3nnc(CCN)[nH]3)c2)c(C)c1.Cl.Cl` [Compound 52, 2-(5-(3-[2,4-Dimethylphenoxy]phenyl)-4H-1,2,4-triazol-3-yl)ethan-1-amine Hydrochloride Hydrochloride] are 308 to 310 °C, below 6.00 and 79%.
`Cl.NCCc1nnc(-c2ccc(OC(F)(F)F)cc2)[nH]1` [Compound 9, 2-(5-(4-[Trifluoromethoxy]phenyl)-4H-1,2,4-triazol-3-yl)ethan-1-amine Hydrochloride] came in with a melting point of 253 to 254 °C. For the same molecule, at TAAR1, the pEC50 is 6.51 and the Emax turned out to be 116%.
With `Cl.NCCc1nnc(-c2cccc(-c3ccc(OC(F)(F)F)cc3)c2)[nH]1` [Compound 67, 2-(5-(4′-(Trifluoromethoxy)-(1,1′-biphenyl)-3-yl)-4H-1,2,4-triazol-3-yl)ethan-1-amine Hydrochloride], the melting point was 253 to 257 °C. In addition, on TAAR1, the pEC50 was 7.02 and the Emax was 94%.
In the same order, the values of `Cl.NCCc1nnc(-c2ccc(OCc3cccc(F)c3)cc2)[nH]1` [Compound 44, 2-(5-(4-[(3-Fluorobenzyl)oxy]phenyl)-4H-1,2,4-triazol-3-yl)ethan-1-amine Hydrochloride] are 214 to 216 °C, 7.52 and 112%.
